Reference: PubChem BioAssay AID330 (DTP/NCI, 2004)
Values joined by “and” are separate entries in the source; they are usually repeats but may differ in a detail not shown here. Equal values may be shown once. Toxic doses and inconclusive results are not listed.

Test system: P388 leukemia ip, CD2F1 mice, survival T/C
Experiment: NCI In Vivo Anticancer Drug Screen. Data for tumor model P388 Leukemia (intraperitoneal) in CD2F1 (CDF1) mice
Conditions: endpoint: median survival time, higher = longer survival
How it was run: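 Mice carrying the transplanted tumor received test compound or vehicle. Survival was recorded in each group, and the value is the treated-group measurement divided by that of the vehicle-treated control group.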

[1] = dose: 50.0 mg/kg/injection, schedule: Q01DX009 (ip), vehicle: saline
[2] = dose: 100.0 mg/kg/injection, schedule: Q01DX009 (ip), vehicle: saline
[3] = dose: 50.0 mg/kg/injection, schedule: Q01DX005 (ip), vehicle: saline
[4] = dose: 100.0 mg/kg/injection, schedule: Q01DX005 (ip), vehicle: saline
[5] = dose: 12.5 mg/kg/injection, schedule: Q01DX005 (ip), vehicle: Klucel (hydroxypropylcellulose) (HPC)
[6] = dose: 25.0 mg/kg/injection, schedule: Q01DX005 (ip), vehicle: Klucel (hydroxypropylcellulose) (HPC)
[7] = dose: 50.0 mg/kg/injection, schedule: Q01DX005 (ip), vehicle: Klucel (hydroxypropylcellulose) (HPC)
[8] = dose: 100.0 mg/kg/injection, schedule: Q01DX001 (ip), vehicle: saline with Tween-80
[9] = dose: 50.0 mg/kg/injection, schedule: Q01DX005 (ip), vehicle: saline with Tween-80
[10] = dose: 100.0 mg/kg/injection, schedule: Q01DX005 (ip), vehicle: saline with Tween-80
[11] = dose: 200.0 mg/kg/injection, schedule: Q01DX005 (ip), vehicle: saline with Tween-80
[12] = dose: 100.0 mg/kg/injection, schedule: Q01DX001 (ip), vehicle: Klucel (hydroxypropylcellulose) (HPC)
[13] = dose: 60.0 mg/kg/injection, schedule: Q01DX005 (ip), vehicle: saline with Tween-80
[14] = dose: 60.0 mg/kg/injection, schedule: Q01DX005 (ip), vehicle: saline
[15] = dose: 120.0 mg/kg/injection, schedule: Q01DX005 (ip), vehicle: saline with Tween-80
[16] = dose: 100.0 mg/kg/injection, schedule: Q01DX005 (ip), vehicle: Klucel (hydroxypropylcellulose) (HPC)
[17] = dose: 200.0 mg/kg/injection, schedule: Q01DX005 (ip), vehicle: Klucel (hydroxypropylcellulose) (HPC)
[18] = dose: 100.0 mg/kg/injection, schedule: Q01DX009 (ip), vehicle: saline with Tween-80
[19] = dose: 200.0 mg/kg/injection, schedule: Q01DX009 (ip), vehicle: saline with Tween-80

SMILES: O=C(CSc1ncnc2nc[nH]c12)c1ccc([N+](=O)[O-])cc1
- T/C [1]: 92 % of control
- T/C [2]: 102 % of control
- T/C (dose: 200.0 mg/kg/injection, schedule: Q01DX009 (ip), vehicle: saline): 112 % of control

SMILES: CCOC(=O)C1=S=C(SCCO)N(C)C1=O
- T/C (dose: 100.0 mg/kg/injection, schedule: Q04DX002 (ip), vehicle: saline with Tween-80): 95 % of control
- T/C (dose: 200.0 mg/kg/injection, schedule: Q04DX002 (ip), vehicle: saline with Tween-80): 103 % of control
- T/C (dose: 400.0 mg/kg/injection, schedule: Q04DX002 (ip), vehicle: saline with Tween-80): 97 % of control

SMILES: CSCCCNCc1ccccc1
- T/C [3]: 100 % of control
- T/C [4]: 106 % of control

SMILES: O=C(N/N=C/c1ccco1)C(=O)Nc1cccc(C(F)(F)F)c1
- T/C [5]: 95 % of control
- T/C [6]: 89 % of control
- T/C [7]: 88 % of control and 95 % of control

SMILES: CC(=O)Nc1ccc2c(c1)C(N)c1ccccc1-2 (stereo not drawn)
- T/C (dose: 100.0 mg/kg/injection, schedule: Q04DX003 (ip), vehicle: saline with Tween-80): 104 % of control
- T/C (dose: 200.0 mg/kg/injection, schedule: Q04DX003 (ip), vehicle: saline with Tween-80): 118 % of control

SMILES: C[C@]12CC[C@H](OC(=O)Cc3ccc(N(CCCl)CCCl)cc3)CC1CC[C@@H]1C2CC[C@]2(C)NC(=O)CCC12 (stereo partly drawn)
- T/C (dose: 50.0 mg/kg/injection, schedule: Q01DX001 (ip), vehicle: saline with Tween-80): 195 % of control
- T/C [8]: 243 % of control and 294 % of control

SMILES: NC(=O)CNC(=O)NC(Cc1ccccc1)C(=O)O (stereo not drawn)
- T/C [9]: 105 % of control
- T/C [10]: 105 % of control
- T/C [11]: 86 % of control

SMILES: COc1ccc(N=Nc2ccc(N(CCCl)CCCl)cc2)cc1
- T/C (dose: 25.0 mg/kg/injection, schedule: Q01DX001 (ip), vehicle: Klucel (hydroxypropylcellulose) (HPC)): 106 % of control
- T/C (dose: 50.0 mg/kg/injection, schedule: Q01DX001 (ip), vehicle: Klucel (hydroxypropylcellulose) (HPC)): 108 % of control
- T/C [12]: 110 % of control

SMILES: CC1COCC(C)OC(C)COCC(C)OC(=O)COCC(=O)O1 (stereo not drawn)
- T/C (dose: 100.0 mg/kg/injection, schedule: Q04DX003 (ip), vehicle: Klucel (hydroxypropylcellulose) (HPC)): 104 % of control
- T/C (dose: 200.0 mg/kg/injection, schedule: Q04DX003 (ip), vehicle: Klucel (hydroxypropylcellulose) (HPC)): 110 % of control
- T/C (dose: 400.0 mg/kg/injection, schedule: Q04DX003 (ip), vehicle: Klucel (hydroxypropylcellulose) (HPC)): 103 % of control

SMILES: S=c1s/c(=C\c2ccccc2)c2nc3ccccc3n12
- T/C [1]: 90 % of control
- T/C [2]: 88 % of control

SMILES: COc1ccc(C(=O)c2c(C(=O)NOCCCc3ccccc3)[nH]c(=O)c(C#N)c2C(=O)NOCCCc2ccccc2)cc1
- T/C (dose: 30.0 mg/kg/injection, schedule: Q01DX005 (ip), vehicle: saline with Tween-80): 102 % of control
- T/C [13]: 105 % of control
- T/C [14]: 109 % of control
- T/C [15]: 96 % of control

SMILES: O=C(O)C1(Cc2ccccc2)C(=O)C=Cc2ccccc21 (stereo not drawn)
- T/C [12]: 101 % of control
- T/C (dose: 200.0 mg/kg/injection, schedule: Q01DX001 (ip), vehicle: Klucel (hydroxypropylcellulose) (HPC)): 101 % of control
- T/C (dose: 400.0 mg/kg/injection, schedule: Q01DX001 (ip), vehicle: Klucel (hydroxypropylcellulose) (HPC)): 97 % of control

SMILES: Oc1cc2c3c(c1)c1cc4c(cc1c[n+]3CC2)OCO4
- T/C (dose: 6.25 mg/kg/injection, schedule: Q01DX009 (ip), vehicle: other): 151 % of control
- T/C (dose: 10.0 mg/kg/injection, schedule: Q01DX005 (ip), vehicle: acid diluted with saline): 119 % of control
- T/C (dose: 12.5 mg/kg/injection, schedule: Q01DX009 (ip), vehicle: other): 155 % of control
- T/C (dose: 20.0 mg/kg/injection, schedule: Q01DX005 (ip), vehicle: acid diluted with saline): 119 % of control
- T/C (dose: 25.0 mg/kg/injection, schedule: Q01DX009 (ip), vehicle: other): 164 % of control

SMILES: CC1=C(c2ccco2)C(c2ccco2)OC1=O (stereo not drawn)
- T/C [13]: 102 % of control
- T/C [15]: 103 % of control
- T/C (dose: 240.0 mg/kg/injection, schedule: Q01DX005 (ip), vehicle: saline with Tween-80): 103 % of control

SMILES: CC(C(=O)O)C1(C(=O)O)CCCCCC1 (stereo not drawn)
- T/C [8]: 100 % of control
- T/C (dose: 200.0 mg/kg/injection, schedule: Q01DX001 (ip), vehicle: saline with Tween-80): 93 % of control
- T/C (dose: 400.0 mg/kg/injection, schedule: Q01DX001 (ip), vehicle: saline with Tween-80): 109 % of control

SMILES: CN1C(=O)c2ccc3c4ccc5c6c(ccc(c7ccc(c2c37)C1=O)c64)C(=O)OC5=O
- T/C [7]: 101 % of control
- T/C [16]: 101 % of control
- T/C [17]: 103 % of control

SMILES: CCOCc1cn[nH]n1
- T/C [14]: 100 % of control
- T/C (dose: 120.0 mg/kg/injection, schedule: Q01DX005 (ip), vehicle: saline): 100 % of control
- T/C (dose: 240.0 mg/kg/injection, schedule: Q01DX005 (ip), vehicle: saline): 104 % of control

SMILES: COc1ccc2cc1CCNC(=O)C1CCCN1C(=O)C1NCCC1O2 (stereo not drawn)
- T/C (dose: 20.0 mg/kg/injection, schedule: Q01DX005 (ip), vehicle: Klucel (hydroxypropylcellulose) (HPC)): 92 % of control
- T/C (dose: 40.0 mg/kg/injection, schedule: Q01DX005 (ip), vehicle: Klucel (hydroxypropylcellulose) (HPC)): 104 % of control
- T/C (dose: 80.0 mg/kg/injection, schedule: Q01DX005 (ip), vehicle: Klucel (hydroxypropylcellulose) (HPC)): 107 % of control

SMILES: O=c1[nH]c2cc([N+](=O)[O-])ccc2nc1/C=C(\O)c1ccco1
- T/C (dose: 60.0 mg/kg/injection, schedule: Q01DX005 (ip), vehicle: Klucel + Tween-80): 100 % of control
- T/C (dose: 120.0 mg/kg/injection, schedule: Q01DX005 (ip), vehicle: Klucel + Tween-80): 94 % of control
- T/C (dose: 240.0 mg/kg/injection, schedule: Q01DX005 (ip), vehicle: Klucel + Tween-80): 94 % of control

SMILES: CCn1cnc(=O)[nH]c1=O
- T/C [7]: 102 % of control
- T/C [16]: 96 % of control
- T/C [17]: 97 % of control

SMILES: O=C1C=CC(=Nc2ccc(N(CCCl)CCCl)cc2)c2ccccc21
- T/C (dose: 50.0 mg/kg/injection, schedule: Q01DX009 (ip), vehicle: Klucel (hydroxypropylcellulose) (HPC)): 171 % of control
- T/C (dose: 100.0 mg/kg/injection, schedule: Q01DX009 (ip), vehicle: Klucel (hydroxypropylcellulose) (HPC)): 156 % of control and 181 % of control

SMILES: CCN(CC)CC(CN(CC)CC)N(CCO)CC(C)C
- T/C [3]: 93 % of control
- T/C [4]: 100 % of control

SMILES: CCOC(=O)Nc1nc2cc(C(=O)OC)n(C)c2s1
- T/C (dose: 50.0 mg/kg/injection, schedule: Q01DX009 (ip), vehicle: saline with Tween-80): 95 % of control
- T/C [18]: 86 % of control
- T/C [19]: 88 % of control

SMILES: COC1OC2COC(c3ccccc3)OC2C(OS(=O)(=O)c2ccc(C)cc2)C1OS(=O)(=O)c1ccc(C)cc1 (stereo not drawn)
- T/C (dose: 6.25 mg/kg/injection, schedule: Q01DX009 (ip), vehicle: saline with Tween-80): 114 % of control
- T/C (dose: 12.5 mg/kg/injection, schedule: Q01DX009 (ip), vehicle: saline with Tween-80): 114 % of control
- T/C (dose: 25.0 mg/kg/injection, schedule: Q01DX009 (ip), vehicle: saline with Tween-80): 108 % of control and 111 % of control
- T/C [18]: 87 % of control
- T/C [19]: 91 % of control

SMILES: COC(=O)Nc1nc2c(OC)c(OC)c(OC)cc2[nH]1
- T/C (dose: 12.5 mg/kg/injection, schedule: Q01DX005 (ip), vehicle: other): 97 % of control
- T/C (dose: 25.0 mg/kg/injection, schedule: Q01DX005 (ip), vehicle: other): 100 % of control
- T/C (dose: 50.0 mg/kg/injection, schedule: Q01DX005 (ip), vehicle: other): 100 % of control
- T/C (dose: 100.0 mg/kg/injection, schedule: Q01DX005 (ip), vehicle: other): 102 % of control

SMILES: CCc1ccc2c(-c3ccccc3)c3ccccc3c(-c3ccccc3)c2c1
- T/C (dose: 12.5 mg/kg/injection, schedule: Q01DX005 (ip), vehicle: saline with Tween-80): 96 % of control
- T/C (dose: 25.0 mg/kg/injection, schedule: Q01DX005 (ip), vehicle: saline with Tween-80): 99 % of control
- T/C [9]: 88 % of control and 90 % of control
- T/C [10]: 90 % of control
- T/C [11]: 88 % of control

SMILES: CC1S(=O)(=O)OCCOS1(=O)=O
- T/C [5]: 162 % of control
- T/C [6]: 175 % of control and 275 % of control
- T/C [7]: 165 % of control and 288 % of control
